The results in this text go back to patent US20250235543A1, “MODIFIED PROTEINS AND PROTEIN DEGRADERS” (Cullgen (Shanghai), Inc., priority 2021, published 2025).

A value given as a limit tells only on which side of the number the result lay.

In one experiment the target is T1, CDK4 (Homo sapiens, UniProt P11802).
T1 construct: endogenous in cells; host or cells: Calu-1
Kind of experiment: CDK4 percentage degradation in Calu-1 cells (immunoblotting). The class given is cell-based. Particulars: Calu-1 cells, 10 μM, 16 hours; read-out: CDK4 Degradation (10 μM). In a few lines:
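Cultured cells were rinsed once in cold PBS and lysed in cold RIPA buffer containing protease and phosphatase inhibitors, with gentle agitation at 4° C. for 30 min. Lysates were centrifuged at 13,000 rpm for 10 min at 4° C., and protein was quantified by BCA. Samples were then separated by SDS-PAGE, detected with ECL, and the CDK4 bands quantified in Image Lab.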
(In general: Immunoblotting shows a protein as a band on a membrane.)

In another experiment the test system is cyclin D1. Description: Cyclin D1 percentage degradation in Calu-1 cells (immunoblotting). The experiment is classed as cell-based. The conditions noted are these: 10 μM, 16 hours. Summed up:
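Cells were rinsed once in cold PBS and lysed in cold RIPA buffer containing protease and phosphatase inhibitors, with gentle agitation at 4° C. for 30 min. Lysates were spun at 13,000 rpm for 10 min at 4° C., protein was measured by BCA, and samples were boiled in Laemmli buffer at 99° C. for 5 min before SDS-PAGE immunoblotting.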

T1 sequence (P11802 2-303 limits assumed): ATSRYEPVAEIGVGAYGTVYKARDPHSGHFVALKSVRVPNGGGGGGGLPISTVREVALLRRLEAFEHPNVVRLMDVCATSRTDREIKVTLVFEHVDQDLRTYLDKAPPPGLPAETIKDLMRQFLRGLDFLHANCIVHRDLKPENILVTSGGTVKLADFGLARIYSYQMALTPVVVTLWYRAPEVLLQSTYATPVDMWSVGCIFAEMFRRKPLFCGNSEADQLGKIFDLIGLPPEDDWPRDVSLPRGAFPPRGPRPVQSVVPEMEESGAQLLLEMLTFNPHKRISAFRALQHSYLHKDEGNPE
T1 sequence (P24385 whole entry partner): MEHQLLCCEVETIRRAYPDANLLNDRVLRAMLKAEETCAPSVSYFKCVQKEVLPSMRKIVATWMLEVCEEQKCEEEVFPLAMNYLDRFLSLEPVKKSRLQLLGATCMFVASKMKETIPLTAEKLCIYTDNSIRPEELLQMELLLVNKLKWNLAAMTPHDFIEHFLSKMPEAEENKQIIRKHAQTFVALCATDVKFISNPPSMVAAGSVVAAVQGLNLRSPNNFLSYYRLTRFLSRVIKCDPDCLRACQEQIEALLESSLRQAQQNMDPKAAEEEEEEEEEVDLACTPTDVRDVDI
T1 sequence (Q16531 2-1140 limits assumed, further chain): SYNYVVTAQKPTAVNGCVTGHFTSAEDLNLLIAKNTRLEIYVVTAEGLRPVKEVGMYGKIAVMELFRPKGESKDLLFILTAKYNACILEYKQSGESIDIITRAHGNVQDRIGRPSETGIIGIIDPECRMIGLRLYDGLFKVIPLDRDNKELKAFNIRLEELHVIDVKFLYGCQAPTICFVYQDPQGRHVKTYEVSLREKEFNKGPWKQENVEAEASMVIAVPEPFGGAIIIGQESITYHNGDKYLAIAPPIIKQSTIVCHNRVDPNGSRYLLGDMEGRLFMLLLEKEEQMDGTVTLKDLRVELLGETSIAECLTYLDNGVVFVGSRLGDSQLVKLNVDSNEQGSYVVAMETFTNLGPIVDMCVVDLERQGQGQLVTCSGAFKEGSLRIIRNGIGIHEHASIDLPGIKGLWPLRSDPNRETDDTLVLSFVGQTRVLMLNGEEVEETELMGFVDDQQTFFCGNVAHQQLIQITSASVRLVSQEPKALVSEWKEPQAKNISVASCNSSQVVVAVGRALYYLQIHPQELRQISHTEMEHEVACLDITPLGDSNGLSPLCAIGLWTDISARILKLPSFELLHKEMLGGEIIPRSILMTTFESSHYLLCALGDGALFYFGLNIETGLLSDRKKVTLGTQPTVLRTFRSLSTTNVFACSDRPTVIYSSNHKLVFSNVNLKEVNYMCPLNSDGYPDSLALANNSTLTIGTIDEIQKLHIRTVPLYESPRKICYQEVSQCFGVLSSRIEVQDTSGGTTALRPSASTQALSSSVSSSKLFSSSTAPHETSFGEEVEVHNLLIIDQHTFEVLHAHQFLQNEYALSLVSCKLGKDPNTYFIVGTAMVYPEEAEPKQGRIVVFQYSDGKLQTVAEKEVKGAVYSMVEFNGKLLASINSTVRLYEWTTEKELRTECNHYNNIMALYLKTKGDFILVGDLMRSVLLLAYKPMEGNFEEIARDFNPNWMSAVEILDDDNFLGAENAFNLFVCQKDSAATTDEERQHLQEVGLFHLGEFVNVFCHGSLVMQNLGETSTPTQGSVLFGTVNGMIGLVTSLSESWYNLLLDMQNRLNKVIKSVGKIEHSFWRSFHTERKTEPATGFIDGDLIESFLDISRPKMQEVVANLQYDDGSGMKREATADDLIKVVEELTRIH

As for `Cc1nc(NC(=O)c2ccccc2NC(=O)CCCCCCCNC(=O)CN2CCN(c3ccc(Nc4ncc(F)c(-c5cc(F)c6nc(C)n(C(C)C)c6c5)n4)nc3)CC2)sc1C` [CPD-306, N-(4,5-Dimethylthiazol-2-yl)-2-(8-(2-(4-(6-((5-fluoro-4-(4-fluoro-1-isopropyl-2-methyl-1H-benzo[d]imidazol-6-yl)pyrimidin-2-yl)amino)pyridin-3-yl)piperazin-1-yl)acetamido)octanamido)benzamide], on CDK4, the inhibition at 10 µM is below 30%. Besides, in the experiment with cyclin D1, the “CyclinD1 Degradation (10 μM)” value is given as “D (protein percentage degradation < 30%)”.

Take `Cc1nc(NC(=O)c2ccccc2NC(=O)CCCCCCCCNC(=O)CN2CCN(c3ccc(Nc4ncc(F)c(-c5cc(F)c6nc(C)n(C(C)C)c6c5)n4)nc3)CC2)sc1C` [CPD-307, N-(4,5-Dimethylthiazol-2-yl)-2-(9-(2-(4-(6-((5-fluoro-4-(4-fluoro-1-isopropyl-2-methyl-1H-benzo[d]imidazol-6-yl)pyrimidin-2-yl)amino)pyridin-3-yl)piperazin-1-yl)acetamido)nonanamido)benzamide]: the inhibition at 10 µM at CDK4 is below 30%. Besides, the “CyclinD1 Degradation (10 μM)” value with cyclin D1 is “D (protein percentage degradation < 30%)”.

Take `Cc1nc(NC(=O)c2ccccc2NC(=O)CCOCCNC(=O)CN2CCN(c3ccc(Nc4ncc(F)c(-c5cc(F)c6nc(C)n(C(C)C)c6c5)n4)nc3)CC2)sc1C` [CPD-308, N-(4,5-Dimethylthiazol-2-yl)-2-(3-(2-(2-(4-(6-((5-fluoro-4-(4-fluoro-1-isopropyl-2-methyl-1H-benzo[d]imidazol-6-yl)pyrimidin-2-yl)amino)pyridin-3-yl)piperazin-1-yl)acetamido)ethoxy)propanamido)benzamide]: the inhibition at 10 µM on CDK4 is below 30%. In the experiment on cyclin D1, the “CyclinD1 Degradation (10 μM)” value was “B (protein percentage degradation < 80%, and >= 50%)”.

With `Cc1nc(NC(=O)c2ccccc2NC(=O)CCOCCOCCNC(=O)CN2CCN(c3ccc(Nc4ncc(F)c(-c5cc(F)c6nc(C)n(C(C)C)c6c5)n4)nc3)CC2)sc1C` [CPD-309, N-(4,5-Dimethylthiazol-2-yl)-2-(3-(2-(2-(2-(4-(6-((5-fluoro-4-(4-fluoro-1-isopropyl-2-methyl-1H-benzo[d]imidazol-6-yl)pyrimidin-2-yl)amino)pyridin-3-yl)piperazin-1-yl)acetamido)ethoxy)ethoxy)propanamido)benzamide], the inhibition at 10 µM at CDK4 is 30 to 50%. For the same compound, in the experiment on cyclin D1, the “CyclinD1 Degradation (10 μM)” value is “D (protein percentage degradation < 30%)”.

Regarding `Cc1nc(NC(=O)c2ccccc2NC(=O)CCOCCOCCOCCNC(=O)CN2CCN(c3ccc(Nc4ncc(F)c(-c5cc(F)c6nc(C)n(C(C)C)c6c5)n4)nc3)CC2)sc1C` [CPD-310, N-(4,5-Dimethylthiazol-2-yl)-2-(1-(4-(6-((5-fluoro-4-(4-fluoro-1-isopropyl-2-methyl-1H-benzo[d]imidazol-6-yl)pyrimidin-2-yl)amino)pyridin-3-yl)piperazin-1-yl)-2-oxo-6,9,12-trioxa-3-azapentadecan-15-amido)benzamide], the inhibition at 10 µM at CDK4 was below 30%. In addition, the “CyclinD1 Degradation (10 μM)” value in the experiment on cyclin D1 is given as “A (protein percentage degradation >= 80%)”.

With `Cc1nc(NC(=O)c2ccccc2NC(=O)CCOCCOCCOCCOCCNC(=O)CN2CCN(c3ccc(Nc4ncc(F)c(-c5cc(F)c6nc(C)n(C(C)C)c6c5)n4)nc3)CC2)sc1C` [CPD-311, N-(4,5-Dimethylthiazol-2-yl)-2-(1-(4-(6-((5-fluoro-4-(4-fluoro-1-isopropyl-2-methyl-1H-benzo[d]imidazol-6-yl)pyrimidin-2-yl)amino)pyridin-3-yl)piperazin-1-yl)-2-oxo-6,9,12,15-tetraoxa-3-azaoctadecan-18-amido)benzamide], the inhibition at 10 µM at CDK4 fell in the range of 30 to 50%. The “CyclinD1 Degradation (10 μM)” value with cyclin D1 was “A (protein percentage degradation >= 80%)”.

For `Cc1nc(NC(=O)c2ccccc2NC(=O)CCOCCOCCOCCOCCOCCNC(=O)CN2CCN(c3ccc(Nc4ncc(F)c(-c5cc(F)c6nc(C)n(C(C)C)c6c5)n4)nc3)CC2)sc1C` [CPD-312, N-(4,5-Dimethylthiazol-2-yl)-2-(1-(4-(6-((5-fluoro-4-(4-fluoro-1-isopropyl-2-methyl-1H-benzo[d]imidazol-6-yl)pyrimidin-2-yl)amino)pyridin-3-yl)piperazin-1-yl)-2-oxo-6,9,12,15,18-pentaoxa-3-azahenicosan-21-amido)benzamide], on CDK4, the inhibition at 10 µM is below 30%. Moreover, the “CyclinD1 Degradation (10 μM)” value in the experiment with cyclin D1 was “A (protein percentage degradation >= 80%)”.

Take `Cc1nc(NC(=O)c2ccccc2NC(=O)CCOCCOCCOCCOCCOCCOCCNC(=O)CN2CCN(c3ccc(Nc4ncc(F)c(-c5cc(F)c6nc(C)n(C(C)C)c6c5)n4)nc3)CC2)sc1C` [CPD-313, N-(4,5-Dimethylthiazol-2-yl)-2-(1-(4-(6-((5-fluoro-4-(4-fluoro-1-isopropyl-2-methyl-1H-benzo[d]imidazol-6-yl)pyrimidin-2-yl)amino)pyridin-3-yl)piperazin-1-yl)-2-oxo-6,9,12,15,18,21-hexaoxa-3-azatetracosan-24-amido)benzamide]: the inhibition at 10 µM at CDK4 is below 30%. Besides, the “CyclinD1 Degradation (10 μM)” value in the experiment on cyclin D1 is reported as “A (protein percentage degradation >= 80%)”.

As to `Cc1nc(NC(=O)c2ccccc2NC(=O)CNC(=O)CN2CCN(c3ccc(Nc4ncc5cc6n(c5n4)C4(CCCCC4)CNC6=O)nc3)CC2)sc1C` [CPD-314, N-(4,5-Dimethylthiazol-2-yl)-2-(2-(2-(4-(6-((6′-oxo-7′,8′-dihydro-6′H-spiro[cyclohexane-1,9′-pyrazino[1′,2′:1,5]pyrrolo[2,3-d]pyrimidin]-2′-yl)amino)pyridin-3-yl)piperazin-1-yl)acetamido)acetamido)benzamide], the inhibition at 10 µM at CDK4 is below 30%. The “CyclinD1 Degradation (10 μM)” value in the experiment on cyclin D1 is given as “D (protein percentage degradation < 30%)”.

Take `Cc1nc(NC(=O)c2ccccc2NC(=O)CCNC(=O)CN2CCN(c3ccc(Nc4ncc5cc6n(c5n4)C4(CCCCC4)CNC6=O)nc3)CC2)sc1C` [CPD-315, N-(4,5-Dimethylthiazol-2-yl)-2-(3-(2-(4-(6-((6′-oxo-7′,8′-dihydro-6′H-spiro[cyclohexane-1,9′-pyrazino[1′,2′:1,5]pyrrolo[2,3-d]pyrimidin]-2′-yl)amino)pyridin-3-yl)piperazin-1-yl)acetamido)propanamido)benzamide]: the inhibition at 10 µM on CDK4 was below 30%. Moreover, the “CyclinD1 Degradation (10 μM)” value in the experiment with cyclin D1 is “D (protein percentage degradation < 30%)”.

For the compound `Cc1nc(NC(=O)c2ccccc2NC(=O)CCCNC(=O)CN2CCN(c3ccc(Nc4ncc5cc6n(c5n4)C4(CCCCC4)CNC6=O)nc3)CC2)sc1C` [CPD-316, N-(4,5-Dimethylthiazol-2-yl)-2-(4-(2-(4-(6-((6′-oxo-7′,8′-dihydro-6′H-spiro[cyclohexane-1,9′-pyrazino[1′,2′:1,5]pyrrolo[2,3-d]pyrimidin]-2′-yl)amino)pyridin-3-yl)piperazin-1-yl)acetamido)butanamido)benzamide], at CDK4, the inhibition at 10 µM is below 30%. In the experiment on cyclin D1, the “CyclinD1 Degradation (10 μM)” value was “D (protein percentage degradation < 30%)”.

For `Cc1nc(NC(=O)c2ccccc2NC(=O)CCCCNC(=O)CN2CCN(c3ccc(Nc4ncc5cc6n(c5n4)C4(CCCCC4)CNC6=O)nc3)CC2)sc1C` [CPD-317, N-(4,5-Dimethylthiazol-2-yl)-2-(5-(2-(4-(6-((6′-oxo-7′,8′-dihydro-6′H-spiro[cyclohexane-1,9′-pyrazino[1′,2′:1,5]pyrrolo[2,3-d]pyrimidin]-2′-yl)amino)pyridin-3-yl)piperazin-1-yl)acetamido)pentanamido)benzamide], the inhibition at 10 µM on CDK4 is 50 to 80%. Further, the “CyclinD1 Degradation (10 μM)” value in the experiment with cyclin D1 was “A (protein percentage degradation >= 80%)”.

In the case of `Cc1nc(NC(=O)c2ccccc2NC(=O)CCCCCNC(=O)CN2CCN(c3ccc(Nc4ncc5cc6n(c5n4)C4(CCCCC4)CNC6=O)nc3)CC2)sc1C` [CPD-318, N-(4,5-Dimethylthiazol-2-yl)-2-(6-(2-(4-(6-((6′-oxo-7′,8′-dihydro-6′H-spiro[cyclohexane-1,9′-pyrazino[1′,2′:1,5]pyrrolo[2,3-d]pyrimidin]-2′-yl)amino)pyridin-3-yl)piperazin-1-yl)acetamido)hexanamido)benzamide], the inhibition at 10 µM at CDK4 fell in the range of 30 to 50%. In addition, in the experiment with cyclin D1, the “CyclinD1 Degradation (10 μM)” value is “D (protein percentage degradation < 30%)”.

`Cc1nc(NC(=O)c2ccccc2NC(=O)CCCCCCNC(=O)CN2CCN(c3ccc(Nc4ncc5cc6n(c5n4)C4(CCCCC4)CNC6=O)nc3)CC2)sc1C` [CPD-319, N-(4,5-Dimethylthiazol-2-yl)-2-(7-(2-(4-(6-((6′-oxo-7′,8′-dihydro-6′H-spiro[cyclohexane-1,9′-pyrazino[1′,2′:1,5]pyrrolo[2,3-d]pyrimidin]-2′-yl)amino)pyridin-3-yl)piperazin-1-yl)acetamido)heptanamido)benzamide]: the inhibition at 10 µM at CDK4 lay in the range of 50 to 80%. Further, the “CyclinD1 Degradation (10 μM)” value with cyclin D1 is “A (protein percentage degradation >= 80%)”.

With `Cc1nc(NC(=O)c2ccccc2NC(=O)CCCCCCCNC(=O)CN2CCN(c3ccc(Nc4ncc5cc6n(c5n4)C4(CCCCC4)CNC6=O)nc3)CC2)sc1C` [CPD-320, N-(4,5-Dimethylthiazol-2-yl)-2-(8-(2-(4-(6-((6′-oxo-7′,8′-dihydro-6′H-spiro[cyclohexane-1,9′-pyrazino[1′,2′:1,5]pyrrolo[2,3-d]pyrimidin]-2′-yl)amino)pyridin-3-yl)piperazin-1-yl)acetamido)octanamido)benzamide], on CDK4, the inhibition at 10 µM lay within 50 to 80%. Besides, the “CyclinD1 Degradation (10 μM)” value with cyclin D1 was “A (protein percentage degradation >= 80%)”.
